Key:
Format in all cases: cell-based, human
[1] = system: tumor-organoids UHN6, UHN17, UHN3, UHN5 and UHN15 (primary PDAC); test: MTT assay of tumor-organoid cultures treated with drugs
Description: (§1) (A) Time lapse imaging sequence of UHN6 derived organoids. (B) H&E, phase and immunofluorescence images for KRT19 (bright) and DAPI (dark) of images of tumor-organoids and their matched primary tumors. ((C) H&E images showing maintenance of inter-organoid heterogeneity in histoarchitecture representing variation in primary patient tumor. (D) Normalized MTT assay readings of organoid cultures treated with gemcitabine for 4 days. E) Normalized MTT assay readings of organoid cultures with gemcitabine and epigenetic inhibitor of the H3K27me3 writer EZH2 (UNC1999). (F) Normalized MTT reading of tumor-organoids treated with UNC199 alone. See online Methods for details. (G) Immunostaining for H3K27me3 (bright) in two primary patient tumors (top panel) and corresponding tumor-organoids (bottom panel). (H) Basal 02 consumption as measured by Seahorse™ flux analyzer with and without UNC1999 treatment. For MTT and oxygen consumptions experiments, data represent mean+/−S.D. P value (t-test, two tailed): N.S-, not significant; *−p=0.01-0.05; **−p=0.001-0.01; ***, p=<0.001 (n=3). All scale bars equal to 50 μm.
(§2) For MTT and oxygen consumptions experiments, data represent mean+/− S.D. P value (t-test, two tailed): N.S-, not significant; *−p=0.01-0.05; **−p=0.001-0.01; ***, p=<0.001 (n=3). (B) Immunostaining for H3K27me3 in control (DMSO) or UNC 1999-treated tumor-organoids. Scale bars, 50 μm. (C) Tumor-organoids (top panel) and primary tumors (bottom panel) derived from tumor UHN3, UHN 5 and UHN15, show consistent patient-specific variation in staining for H3K27me3. Scale bars, 50 μm.
For pancreas progenitor organoid culture, T9 cells were resuspended and plated in the PTOM (Pancreatic Progenitor and Tumor Organoid Media) containing DMEM with factors including serum-free supplements, FGFs, and insulin. The cells were plated on a bed of Matrigel as described before 3. At day 8 in 3D culture, replace culture medium with fresh POMM (Pancreatic Organoid Maintenance Media) (PTOM media without FGFs) with 5% Matrigel every 4 days. PODM I (Pancreatic Organoid Differentiation Media) contains DMEM with B27, 2-phospho ascorbic acid, FGF, EGF, TGF beta inhibitors. PODM II contains DMEM with B27, 2-phospho ascorbic acid, FGF, EGF. Fresh tissues of primary tumors from patients were washed twice with DMEM, digested with collagenase (Roche) and resuspended in PTOM. Tumor cells were then seeded in 3D culture chambers as described above. Culture media were replaced every 4 days. For serial passaging of organoids, day 16 organoids were treated with collagenase for 2 hours then further dissociated with trypsin for 10-30 minutes. Cells were collected and re-seeded in 3D culture following protocols as described above. […]
We analyzed five organoid cultures, UHN6, UHN17, UHN3, UHN5 and UHN15. […]

[2] = system: progenitor-organoids; test: Toxicity of epigenetic inhibitors to normal cells in progenitor-organoids; details: compared with JQ1, LAQ824, SGC0946, data not shown
Description: For pancreas progenitor organoid culture, T9 cells were resuspended and plated in the PTOM (Pancreatic Progenitor and Tumor Organoid Media) containing DMEM with factors including serum-free supplements, FGFs, and insulin. The cells were plated on a bed of Matrigel as described before 3. At day 8 in 3D culture, replace culture medium with fresh POMM (Pancreatic Organoid Maintenance Media) (PTOM media without FGFs) with 5% Matrigel every 4 days. PODM I (Pancreatic Organoid Differentiation Media) contains DMEM with B27, 2-phospho ascorbic acid, FGF, EGF, TGF beta inhibitors. PODM II contains DMEM with B27, 2-phospho ascorbic acid, FGF, EGF. Fresh tissues of primary tumors from patients were washed twice with DMEM, digested with collagenase (Roche) and resuspended in PTOM. Tumor cells were then seeded in 3D culture chambers as described above. Culture media were replaced every 4 days. For serial passaging of organoids, day 16 organoids were treated with collagenase for 2 hours then further dissociated with trypsin for 10-30 minutes. Cells were collected and re-seeded in 3D culture following protocols as described above. MCF-10A cells were obtained from ATCC. Gene expression data will be uploaded into NCBI's Gene Expression Omnibus (GEO). […]

[3] = system: H3K27me3 mark in UHN17 organoids; test: Immunostaining for H3K27me3 in control (DMSO) or UNC1999-treated tumor-organoids; details: at concentrations with significant growth-inhibitory effects
Description: as §2
Inhibitors of BET (JQ1), histone deacetylase (LAQ824), DOT1L (SGC0946), G9a (A366) and EZH2 (UNC1999) were tested in progenitor-organoids to investigate their toxicities to normal cells. […] A366 and UNC1999 were administered to organoid cultures in combination with the current standard of care, gemcitabine (See FIG. 6 legend and FIG. 12). Organoids were not sensitive to G9a inhibition (FIG. 12A).

[4] = system: tumor-organoids UHN17, UHN3; test: Basal O2 consumption measured by Seahorse flux analyzer with and without UNC1999
Description: as §1
Recent studies reveal a relationship between oxygenation and regulation of H3K27me3 epigenetic mark^28,29. […] We measured basal respiration rates to investigate if tumor-organoids show differences in oxygen consumption. […]

## Nc1ccn([C@@H]2O[C@H](CO)[C@@H](O)C2(F)F)c(=O)n1 [gemcitabine]
[1]; gemcitabine for 4 days, all five organoid cultures UHN6, UHN17, UHN3, UHN5, UHN15
  growth inhibition in MTT assays: 30%

## CCCc1cc(C)[nH]c(=O)c1CNC(=O)c1cc(-c2ccc(N3CCN(C(C)C)CC3)nc2)cc2c1cnn2C(C)C [UNC1999]
[1]; UNC1999 alone, UHN17, UHN3, UHN5
  suppression of proliferation by EZH2 inhibition alone (MTT): effective in suppressing proliferation
[1]; in combination with gemcitabine, UHN17, UHN3, UHN5, UHN15
  proliferation upon EZH2 inhibition compared to gemcitabine treatment alone (MTT): dose-dependent decreases in proliferation
[2]
  toxicity to normal cells: least toxic
[3]
  H3K27me3 mark after treatment: suppressed the H3K27me3 mark
[4]
  basal oxygen consumption after EZH2 inhibition: suppressed

## COc1cc2c(cc1OCCCN1CCCC1)N=C(N)C21CCC1 [A366]
[1]; in combination with gemcitabine, tumor-organoids
  sensitivity of organoids to G9a inhibition (MTT): not sensitive
[2]
  toxicity to normal cells: least toxic

From patent publication US12247224B2, “Organoids for drug screening and personalized medicine” (SENTING, LLC, priority 2014, dated 2025)
